Assays:
Hs27 cells = test: MitoSOX Red mitochondrial superoxide, flow cytometry; format: cell-based, human; settings: Hs27, 1 μM, 8 h
Experimental: (§1) FIG. 7: XB05 Induces ROS. (A) Cells were treated with either vehicle, tert-butyl hydrogen peroxide (TBHP, 100 μM, 3 h) or XB05 (8 h with 1 μM for U937 and Hs27, or 2 μM for A549), then stained with carboxy-H2DCFDA and PI for analysis by flow cytometry. Histograms illustrate representative data and bar graphs show the increase (over vehicle control) in the percentage of PI-negative (viable) cells with positive DCF fluorescence in each sample. Bars represent the mean+/−SEM from three independent experiments. […] (B) Cells were treated with XB05 as described in part A. As a positive control for superoxide production, cells were treated with Antimycin A (10 μM) for 1 h. Cells were harvested and subjected to MitoSOX™ Red staining for analysis by flow cytometry as described in Methods. Histograms illustrate representative data and bar graphs show the mean+/−SEM for three independent experiments.
(§2) Flow Cytometric Assays. Analyses were performed using a FACScalibur flow cytometer (BD Biosciences, Mountain View, Calif.) and FlowJo software (Tree Star, Inc., Ashland, Oreg.). Cells were treated as indicated in the figures and in the Brief Description of the Drawings. Cells were harvested by using TrypLE Cell Dissociation Reagent (Life Technologies). For cell death analyses, cells (adherent and detached cells) were stained with annexin-V-FITC and propidium iodide (PI) using the Apoptosis Detection Kit (BD Biosciences, San Jose, Calif.), according to the manufacturer's instructions. For cell-cycle distribution, cells were fixed, and stained with PI using the Cycle Test Plus kit (Becton Dickinson, Franklin Lakes, N.J.). For detection of γ-H2AX, cells were washed with PBS and fixed in 4% paraformaldehyde in PBS for 10 min at 37° C. Cells were then permeabilized in 90% methanol for 30 min on ice, blocked in 2% BSA (w/v in PBS) for 1 h, and incubated with γ-H2AX antibody or rabbit IgG isotype control (Santa Cruz, sc-2027) (0.3 μg/mL in 1% BSA) for 1 h. […] Cells were then washed twice with PBS, re-suspended at a density of 1×10^6 cells/mL in PBS and analyzed by flow cytometry.

U937 cells = test: as above; format: cell-based, human; settings: U937, 1 μM, 8 h
Experimental: as §1, §2

A549 cells = test: as above; format: cell-based, human; settings: A549, 2 μM, 8 h
Experimental: as §1, §2

MDA-MB-231 cells = test: MTT cell proliferation assay; format: cell-based; settings: Homo sapiens, MDA-MB-231, 72 h
Experimental: (§3) Cell Proliferation Assays. The antiproliferative activity of XB05 was tested using a previously published 3-(4,5-dimethylthiazol-2-yl)-2,5-diphenyltetrazolium bromide (MTT) assay protocol (Girvan et al., “AGRO100 inhibits activation of nuclear factor-kappaB (NF-kappaB) by forming a complex with NF-kappaB essential modulator (NEMO) and nucleolin” Molecular Cancer Therapeutics (2006) Vol. 5, No. 7, pp. 1790-1799). Briefly, cells were seeded in quadruplicate wells in 96-well plates and allowed to adhere overnight. […] Plates were incubated with XB05 for 72 h, during which the cell culture medium was not changed. Cell viability was determined and the background corresponding to medium alone (no cells) was subtracted. Data were analyzed as described in the Brief Description of the Drawings.
(§4) XB05 has Cancer-Selective Antiproliferative Activity. XB05 was tested to determine its antiproliferative activity in a variety of human cell lines that are derived from malignant tissues or from non-malignant (immortalized but not transformed) cells and listed in FIG. 1B. As described in Materials and Methods, cells were treated with varying concentrations of XB05 for 72 h and evaluated using the MTT cell proliferation assay.

DU145 cells = test: MTT cell proliferation assay; format: cell-based; settings: Homo sapiens, DU-145; DU145, 72 h
Experimental: as §3, §4

[1] = DTNB assay for free sulfhydryls; settings: 5 mM XB05; 0.25 mM Cys or GSH, pH 8, 30 min, 37° C.
Experimental: FIG. 12: XB05 is Weakly Reactive with Thiols In Vitro: 0.25 mM Cysteine (Cys, top panel) or glutathione (GSH, bottom panel) were incubated with XB05, diethyl maleate (DEM), or maleimide at the indicated concentrations, or with an equivalent amount of vehicle (DMSO), for 30 min at 37° C. 5,5′-Dithiobis-2-nitrobenzoic acid (DTNB) assays were conducted as described in Methods. Absorbance for triplicate wells was determined at 412 nm. Points represent the mean and standard deviation for triplicate wells. Data shown are representative of two independent experiments.
Dithiobis-2-nitrobenzoic Acid (DTNB) Assay for Free Sulfhydryls. For each experiment, a 20× working solution of DTNB (2 mM DTNB, 50 mM sodium acetate in 100 mM Tris-HCl, pH 8.0) and 2× solutions of cysteine and GSH (0.5 mM in 100 mM Tris-HCl, pH 8.0) were freshly prepared. 10 mM stock solutions of XB05, diethyl maleate and maleimide were prepared in 100% DMSO, and subsequently serially diluted to 2× working solutions in 100 mM Tris-HCl, pH 8.0. 100 μl each of thiol compounds (final concentration 0.25 mM) and thiol-reactive compounds (final concentrations 0.05-5 mM) or vehicle control (DMSO) were added in duplicate to a 96-well plate and allowed to incubate at 37° C. for 30 minutes. […] Absorbance was read on a Biotek HT Synergy Plate reader (Winooski, Vt.) at 412 nm.

[2] = test system: Hs27 non-malignant skin fibroblasts; test: MTT cell proliferation assay; format: cell-based, human; settings: Hs27, MTT 72 h
Experimental: as §3, §4

[3] = test system: U937 myeloid leukemia cells; test: MTT cell proliferation assay; format: cell-based, human
Experimental: as §3, §4

[4] = test system: A549 non-small cell lung cancer cells; test: MTT cell proliferation assay; format: cell-based, human; settings: A549, MTT 72 h
Experimental: as §3, §4

CCCCCC(O)C#CC(F)(F)Br (stereo not shown) [XB05]
MitoSOX Red fluorescence vs vehicle (Hs27 cells): not in Hs27 non-malignant fibroblasts
MitoSOX Red fluorescence vs vehicle (U937 cells): increase in MitoSOX™ Red fluorescence
MitoSOX Red fluorescence vs vehicle (A549 cells): increase in MitoSOX™ Red fluorescence
GI50 (MDA-MB-231 cells): < 0.5 µM
GI50 (DU145 cells): < 0.5 µM
depletion of free thiols [1]: 40-50%
sensitivity to XB05 [2]: low sensitivity
GI50 ([3]; Homo sapiens, U-937, U937, 72 h): < 0.5 µM
sensitivity to XB05 ([3]; U937, MTT 72 h): high sensitivity
sensitivity to XB05 [4]: moderate sensitivity

Reference: patent US9737493B2, “Compositions and methods for modulating DNMT1 inhibitor activity” (University of Louisville Research Foundation, Inc., priority 2012, dated 2017)
